Where two headings read alike, the source gives them in different places.
Assays:
influenza = details: 2009 H1N1 pandemic; cited from earlier work
Henoch Schonlein Purpura = assay: Example 2 case study: person with Henoch Schonlein Purpura; assay type: in vivo, human; details: before the combination; ibuprofen and diphenhydramine
From the text: Case Study: person with Henoch Schonlein Purpura The patient is a person originally seen and evaluated in London, England, Feb. […] […] The ibuprofen and diphenhydramine were discontinued.

[1] = system: Churg-Strauss Syndrome (eosinophilic vasculitis); assay: Example 1 case study: person with Churg-Strauss Syndrome; assay type: in vivo, human; details: 2010, patient history
[2] = cited from earlier work; for time to steady state level: montelukast
[3] = cited from earlier work
[4] = with warfarin, theophylline, digoxin, terfenadine, oral contraceptives, or prednisone; cited from earlier work
eosinophil migration = details: cited from earlier work
human rhinovirus = details: airway epithelial cells; cited from earlier work
IL-4, IL-6, and IL-8 = details: cited from earlier work
H1 receptor = H1 receptor (Homo sapiens, UniProt P35367); details: acidic pH (inflamed tissue), relative to first generation molecules, cited from earlier work
[5] = system: histamine induced wheal and flare; details: cited from earlier work
[6] = in vivo; cited from earlier work
[7] = cited from earlier work; remark: listed apart in the source

H1 receptor, sequence (P35367 whole entry): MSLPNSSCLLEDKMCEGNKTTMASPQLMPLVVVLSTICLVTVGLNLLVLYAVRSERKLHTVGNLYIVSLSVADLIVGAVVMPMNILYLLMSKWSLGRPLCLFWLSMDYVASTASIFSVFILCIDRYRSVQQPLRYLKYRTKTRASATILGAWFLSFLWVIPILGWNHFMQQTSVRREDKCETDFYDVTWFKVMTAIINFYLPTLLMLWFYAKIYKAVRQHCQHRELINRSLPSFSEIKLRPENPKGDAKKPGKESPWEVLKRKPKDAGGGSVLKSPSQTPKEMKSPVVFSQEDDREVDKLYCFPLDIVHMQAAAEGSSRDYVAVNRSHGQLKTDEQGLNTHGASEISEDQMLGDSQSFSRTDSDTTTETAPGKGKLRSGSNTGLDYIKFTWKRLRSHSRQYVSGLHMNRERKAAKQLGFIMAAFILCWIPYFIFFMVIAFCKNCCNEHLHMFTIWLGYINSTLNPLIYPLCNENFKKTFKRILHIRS

CCOC(=O)C1=C[C@@H](OC(CC)CC)[C@H](NC(C)=O)[C@@H](N)C1 [oseltamivir]
influenza related lower respiratory tract complications (influenza): did not appear to reduce

CC(C)Cc1ccc(C(C)C(=O)O)cc1 (centres unmarked) [ibuprofen]
response of recurrent Henoch Schonlein Purpura (Henoch Schonlein Purpura): poorly responsive

omalizumab
trial for severe asthma [1]: Unsuccessful

CC(C)(O)c1ccccc1CC[C@@H](SCC1(CC(=O)O)CC1)c1cccc(/C=C/c2ccc3ccc(Cl)cc3n2)c1 [montelukast]
IV plasma concentration area under the curve profile versus oral tablet ([2]; IV 7 mg vs approved 10 mg oral tablet): comparable
linearity of pharmacokinetics ([2]; in vivo): linear pharmacokinetics to 50 mg
time to peak plasma concentration ([2]; in vivo): 3 to 4 h
time to steady state level [2]: within two days
time to steady state level ([2]; listed as Montelukast): less than two days
effect of a standard meal on oral bioavailability and Cmax ([2]; standard meal): not affected
doses administered without clinically important adverse experiences ([3]; adult patients for 22 weeks): up to 200 mg/day
doses administered without clinically important adverse experiences ([3]; short-term studies, patients for approximately one week): up to 900 mg/day
drug interactions [4]: no drug interactions

CN(C)CCOC(c1ccccc1)c1ccccc1 [diphenhydramine]
response of recurrent Henoch Schonlein Purpura (Henoch Schonlein Purpura): poorly responsive

O=C(O)COCCN1CCN([C@H](c2ccccc2)c2ccc(Cl)cc2)CC1 [levocetirizine]
eosinophil migration / quantity (eosinophil migration): decrease
rhinovirus-induced ICAM-1 and cytokine expression and viral replication (human rhinovirus): inhibits
inflammatory mediators, IL-4, IL-6, and IL-8 (IL-4, IL-6, and IL-8): decrease
enhanced receptor affinity over first generation mepyramine (H1 receptor): up to 5 ×
enhanced receptor affinity over first generation mepyramine (H1 receptor; listed as Levocetirizine): 5 ×
potency among the five modern generation antihistamines ([5]; histamine induced wheal and flare data): most potent
effectiveness versus fexofenadine ([5]; levocetirizine 5 mg per day vs fexofenadine 180 mg per day): more effective than fexofenadine
time to steady state level [6]: 40 h
principal side effect at higher doses ([7]; higher doses): Sedation
doses safely administered in humans ([7]; human dosing safety studies): up to 30 mg/day

From patent publication US9669025B2 (INFLAMMATORY RESPONSE RESEARCH, INC., priority 2013, dated 2017)
